In article doi:10.1101/2022.08.09.502705v1 (biorxiv, 2022):

Tests used:
iEscSnFR [1] = experiment: fluorescence concentration-response of purified biosensor; assay type: binding; settings: purified protein
hSERT = hSERT (Homo sapiens, UniProt P31645, K490T); experiment: cell-based
iFluoxSnFR [2] = experiment: isothermal titration calorimetry; assay type: binding; settings: 3x PBS pH […] °C
iFluoxSnFR [3] = experiment: fluorescence concentration-response of purified biosensor; assay type: binding; settings: purified protein
iEscSnFR [4] = experiment: isothermal titration calorimetry; assay type: binding; settings: 3x PBS pH […] °C

Chain of hSERT (P31645 whole entry K490T): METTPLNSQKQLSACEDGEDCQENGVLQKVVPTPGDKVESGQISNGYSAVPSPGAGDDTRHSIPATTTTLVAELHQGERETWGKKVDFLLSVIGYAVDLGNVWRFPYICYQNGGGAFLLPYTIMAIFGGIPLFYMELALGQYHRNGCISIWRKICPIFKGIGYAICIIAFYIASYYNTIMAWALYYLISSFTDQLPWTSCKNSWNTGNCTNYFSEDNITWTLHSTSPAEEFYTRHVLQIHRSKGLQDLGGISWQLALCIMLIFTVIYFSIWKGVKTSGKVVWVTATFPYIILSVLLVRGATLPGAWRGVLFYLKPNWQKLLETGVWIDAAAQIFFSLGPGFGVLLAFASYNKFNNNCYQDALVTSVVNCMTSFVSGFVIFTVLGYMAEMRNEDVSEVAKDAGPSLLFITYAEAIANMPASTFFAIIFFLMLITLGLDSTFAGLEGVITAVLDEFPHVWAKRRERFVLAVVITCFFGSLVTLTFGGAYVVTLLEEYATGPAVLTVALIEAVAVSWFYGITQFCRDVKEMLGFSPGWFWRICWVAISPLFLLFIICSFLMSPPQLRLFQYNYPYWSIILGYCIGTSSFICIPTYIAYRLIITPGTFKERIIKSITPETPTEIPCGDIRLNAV

Row | SMILES | EC50 (iEscSnFR [1]) | EC50 (iFluoxSnFR [3]) | other results
1 | C[N+](C)(C)CCC[C@@]1(c2ccc(F)cc2)OCc2cc(C#N)ccc21 [N-methylescitalopram] | 1.8 ± 0.2 µM | – | –
2 | C[N+](C)(C)CCO [choline] | 140 ± 20 µM | – | –
3 | C[N+](C)(C)CCC(Oc1ccc(C(F)(F)F)cc1)c1ccccc1 (racemic) [N-N-dimethylfluoxetine] | – | 14 ± 0.4 µM | IC50 (hSERT): 0.6 ± 0.2 µM; Kd (iFluoxSnFR [2]): 28.1 ± 3.7 µM
4 | NCCC(Oc1ccc(C(F)(F)F)cc1)c1ccccc1 (centres unmarked) [norfluoxetine] | – | 63 ± 20 µM | –
5 | CN(C)CCC[C@@]1(c2ccc(F)cc2)OCc2cc(C#N)ccc21 [escitalopram] | 4.5 ± 0.2 µM | – | Kd (iEscSnFR [4]): 3.4 ± 0.1 µM
